Measured values: ChEMBL document CHEMBL1201862, “PubChem BioAssay data set” (2004)
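Growth conditions: 96-well plates. Treatment: test compound, 48 hours, 5 concentrations. Analysis: linear interpolation between bracketing concentrations; unreached endpoints set to highest concentration. GI50 is the concentration that inhibits growth by half.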 Calls of active or inactive are those of the source. No stated cut-off is given here; in the data, active = GI50 up to about 1.1 µM and inactive = higher.

What was measured:
Assay in all cases: inhibition of tumour cell growth, NCI panel, 48 h
SW-620 = system: SW-620
Malme-3M = system: Malme-3M
TK-10 = system: TK-10
Hs-578T = system: Hs-578T
RXF 393 = system: RXF 393
MDA-N = system: MDA-N
SNB-19 = system: SNB-19
MDA-MB-231 = system: MDA-MB-231
MCF7 = system: MCF7
HCT-116 = system: HCT-116
HOP-62 = system: HOP-62
T47D = system: T47D
SK-OV-3 = system: SK-OV-3
NCI-H23 = system: NCI-H23
LOX IMVI = system: LOX IMVI
PC-3 = system: PC-3
CCRF-CEM = system: CCRF-CEM
SNB-75 = system: SNB-75

Structure (SMILES) | GI50 (SW-620) | GI50 (Malme-3M) | GI50 (TK-10) | GI50 (Hs-578T) | GI50 (RXF 393) | GI50 (MDA-N) | GI50 (SNB-19) | GI50 (MDA-MB-231) | GI50 (MCF7) | GI50 (HCT-116) | GI50 (HOP-62) | GI50 (T47D) | GI50 (SK-OV-3) | GI50 (NCI-H23) | GI50 (LOX IMVI) | GI50 (PC-3) | GI50 (CCRF-CEM) | GI50 (SNB-75)
NS(=O)(=O)c1nnc(NC(=O)C23CC4CC(CC(C4)C2)C3)s1 | > 100 µM (inactive) | > 100 µM (inactive) | > 100 µM (inactive) | > 100 µM (inactive) | 61.7 µM (inactive) | > 100 µM (inactive) | > 100 µM (inactive) | > 100 µM (inactive) | > 100 µM (inactive) | > 100 µM (inactive) | > 100 µM (inactive) | 90.4 µM (inactive) | > 100 µM (inactive) | > 100 µM (inactive) | > 100 µM (inactive) | – | – | –
C[C@]12CC[C@H]3[C@@H](CCC4=C(Br)C(=O)C=C[C@@]43O)[C@@H]1CCC2=O | 26.8 µM (inactive) | 93.5 µM (inactive) | 36.6 µM (inactive) | 62.8 µM (inactive) | 21.1 µM (inactive) | 30.6 µM (inactive) | 61 µM (inactive) | 82 µM (inactive) | 38.9 µM (inactive) | 26.4 µM (inactive) | 50 µM (inactive) | – | > 100 µM (inactive) | 17.8 µM (inactive) | 32.3 µM (inactive) | 37.8 µM (inactive) | 0.957 µM (active) | –
CN(C)CCCNC(=O)c1cc(NC(=O)c2cc(NS(=O)(=O)c3ccc4c(c3)C(=O)c3ccccc3C4=O)cn2C)cn1C | 94.8 µM (inactive) | 28.4 µM (inactive) | > 100 µM (inactive) | – | > 100 µM (inactive) | 88.5 µM (inactive) | 41.5 µM (inactive) | > 100 µM (inactive) | 31.8 µM (inactive) | > 100 µM (inactive) | > 100 µM (inactive) | > 100 µM (inactive) | < 0.01 µM (active) | > 100 µM (inactive) | 55.3 µM (inactive) | > 100 µM (inactive) | 31.7 µM (inactive) | > 100 µM (inactive)
CC(=O)/C(=C\c1ccc(Cl)c(Cl)c1)C(=O)C(C)CN(C)C (configuration not stated) | 2.69 µM (inactive) | 8.15 µM (inactive) | 1.94 µM (inactive) | – | – | 3.62 µM (inactive) | 1.8 µM (inactive) | 11.5 µM (inactive) | 3.61 µM (inactive) | 2.13 µM (inactive) | 19.1 µM (inactive) | 2.65 µM (inactive) | 16.5 µM (inactive) | 13.4 µM (inactive) | 2.21 µM (inactive) | 4.62 µM (inactive) | < 0.01 µM (active) | –
CC1CC(NN)=Nc2ccccc2N1 (configuration not stated) | > 100 µM (inactive) | 16.6 µM (inactive) | > 100 µM (inactive) | > 100 µM (inactive) | – | > 100 µM (inactive) | > 100 µM (inactive) | > 100 µM (inactive) | – | > 100 µM (inactive) | > 100 µM (inactive) | – | > 100 µM (inactive) | > 100 µM (inactive) | – | > 100 µM (inactive) | 40.3 µM (inactive) | –
CCC1(CC)C(=O)OC(=O)C1(CC)CC | > 100 µM (inactive) | – | > 100 µM (inactive) | 15.2 µM (inactive) | – | > 100 µM (inactive) | > 100 µM (inactive) | > 100 µM (inactive) | – | > 100 µM (inactive) | > 100 µM (inactive) | > 100 µM (inactive) | > 100 µM (inactive) | > 100 µM (inactive) | > 100 µM (inactive) | > 100 µM (inactive) | > 100 µM (inactive) | > 100 µM (inactive)
O=C(NN=C1NCCCCN1)Nc1ccc(Cl)cc1 | > 100 µM (inactive) | > 100 µM (inactive) | > 100 µM (inactive) | > 100 µM (inactive) | > 100 µM (inactive) | – | > 100 µM (inactive) | – | > 100 µM (inactive) | > 100 µM (inactive) | > 100 µM (inactive) | > 100 µM (inactive) | > 100 µM (inactive) | > 100 µM (inactive) | > 100 µM (inactive) | 73.5 µM (inactive) | 47.2 µM (inactive) | 31.6 µM (inactive)
COc1ccc(OC)c2sc(N3C(=O)/C(=C/c4ccc(N(C)C)cc4)N=C3c3ccccc3)nc12 | 49.8 µM (inactive) | – | > 100 µM (inactive) | 91 µM (inactive) | – | 22.2 µM (inactive) | > 100 µM (inactive) | > 100 µM (inactive) | 22.3 µM (inactive) | 34.8 µM (inactive) | > 100 µM (inactive) | 38.5 µM (inactive) | > 100 µM (inactive) | – | 41 µM (inactive) | 33 µM (inactive) | 6.04 µM (inactive) | 80.5 µM (inactive)
CCc1[nH]c(=O)c2oc3cc4ccccc4cc3c2c1C(=O)O | > 10 µM (inactive) | > 10 µM (inactive) | > 10 µM (inactive) | > 10 µM (inactive) | > 10 µM (inactive) | – | > 10 µM (inactive) | 0.00588 µM (active) | – | > 10 µM (inactive) | – | – | – | – | > 10 µM (inactive) | > 10 µM (inactive) | – | > 10 µM (inactive)
CC1CC(C(=O)OC2OC(COC3OC(CO)C(OC4OC(C)C(O)C(O)C4O)C(O)C3O)C(O)C(O)C2O)C2CCC3(C)C(=CCC4(C)C3CCC3C(C)(CO)C(O)C(O)CC34C)C2C1C (configuration not stated) | 30.1 µM (inactive) | – | > 100 µM (inactive) | 17.7 µM (inactive) | – | 19.5 µM (inactive) | 17.4 µM (inactive) | 17.9 µM (inactive) | 23.7 µM (inactive) | 18.2 µM (inactive) | 17.7 µM (inactive) | 18.4 µM (inactive) | 49.1 µM (inactive) | 16.3 µM (inactive) | 21.7 µM (inactive) | 29.5 µM (inactive) | 21.9 µM (inactive) | 16.9 µM (inactive)
CC1=NNC(=O)C1C1CC(c2c[nH]c3ccccc23)=NNC1=S (configuration not stated) | > 100 µM (inactive) | > 100 µM (inactive) | > 100 µM (inactive) | > 100 µM (inactive) | > 100 µM (inactive) | > 100 µM (inactive) | > 100 µM (inactive) | > 100 µM (inactive) | – | > 100 µM (inactive) | > 100 µM (inactive) | 82.2 µM (inactive) | > 100 µM (inactive) | 64 µM (inactive) | – | > 100 µM (inactive) | 28.6 µM (inactive) | > 100 µM (inactive)
CN1CCC2(CC1)/C(=N/C1CCCCC1)NC(=S)N2c1ccccc1 | > 100 µM (inactive) | > 100 µM (inactive) | > 100 µM (inactive) | 13.8 µM (inactive) | > 100 µM (inactive) | – | > 100 µM (inactive) | > 100 µM (inactive) | > 100 µM (inactive) | > 100 µM (inactive) | > 100 µM (inactive) | > 100 µM (inactive) | > 100 µM (inactive) | > 100 µM (inactive) | > 100 µM (inactive) | – | > 100 µM (inactive) | > 100 µM (inactive)
CN(NC(=O)/C(=C/c1ccc(Cl)cc1)NC(=O)c1ccccc1)c1cn[nH]c(=O)c1Cl | > 100 µM (inactive) | 54.5 µM (inactive) | > 100 µM (inactive) | > 100 µM (inactive) | > 100 µM (inactive) | > 100 µM (inactive) | > 100 µM (inactive) | > 100 µM (inactive) | > 100 µM (inactive) | > 100 µM (inactive) | 47 µM (inactive) | – | > 100 µM (inactive) | > 100 µM (inactive) | 62.7 µM (inactive) | > 100 µM (inactive) | 30 µM (inactive) | 59 µM (inactive)
Cc1cc(C)c(C(=O)c2nnc3ccccc3c2N)c(C)c1 | 26.7 µM (inactive) | – | – | 24 µM (inactive) | – | 16.7 µM (inactive) | 35.8 µM (inactive) | 16.9 µM (inactive) | – | 10.3 µM (inactive) | 13.6 µM (inactive) | 16.6 µM (inactive) | 32.4 µM (inactive) | 22.1 µM (inactive) | 16 µM (inactive) | 17.4 µM (inactive) | 31 µM (inactive) | 27.5 µM (inactive)
CC1=CC(=O)c2cccc(NC3=NCCO3)c21 | > 100 µM (inactive) | 30.6 µM (inactive) | > 100 µM (inactive) | 76.9 µM (inactive) | 48.9 µM (inactive) | 27.7 µM (inactive) | > 100 µM (inactive) | 32.4 µM (inactive) | – | 33.6 µM (inactive) | > 100 µM (inactive) | 68.7 µM (inactive) | > 100 µM (inactive) | 43.5 µM (inactive) | 37.8 µM (inactive) | 46.6 µM (inactive) | 42 µM (inactive) | 52.6 µM (inactive)
CCC[C@H](O)[C@@H](CNc1cc(NC(C)=O)nc(NC(C)=O)n1)N(Cc1ccccc1)Cc1ccccc1 | > 100 µM (inactive) | 26.1 µM (inactive) | 20.3 µM (inactive) | 14 µM (inactive) | – | 47 µM (inactive) | 39.3 µM (inactive) | 49.9 µM (inactive) | 8.79 µM (inactive) | 16.6 µM (inactive) | 15.2 µM (inactive) | – | 19.8 µM (inactive) | 17.1 µM (inactive) | 27.9 µM (inactive) | 13.5 µM (inactive) | > 10 µM (inactive) | 13.2 µM (inactive)
O=S(=O)(N/C(=N\O)Nc1ccc(Cl)cc1)c1cc2ccccc2o1 | 23.1 µM (inactive) | 19.9 µM (inactive) | 28.8 µM (inactive) | 20.4 µM (inactive) | 34.8 µM (inactive) | 38.8 µM (inactive) | 34.5 µM (inactive) | 18 µM (inactive) | – | 11.4 µM (inactive) | 23.6 µM (inactive) | > 100 µM (inactive) | 19.3 µM (inactive) | 18 µM (inactive) | 11.5 µM (inactive) | 25.4 µM (inactive) | 22.1 µM (inactive) | 38.1 µM (inactive)
